This is an account of results in PMC4234442 (Journal of Medicinal Chemistry, 2014).

Counter-ions that a name gives are not always drawn. Marks after values point to notes of the source that are not given here. Ends that are not written are not given here. A value given as a limit tells only on which side of the number the result lay.

The target of assay [1] is T1, NPFF1-R (Homo sapiens, UniProt Q9GZQ6). It counts as binding.
In assay [2] the target is T1, NPFF1-R. The assay is classed as cell-based.
For assay [3], the target named is T1, NPFF1-R. Kind of assay: [35S]GTPγS binding assay, membranes of NPFF1-R expressing CHO cells. The note with it: tested at 10 μM; % maximal activation. It counts as biochemical. (In general: GTPγS resists hydrolysis and so accumulates on activated G proteins.)
Assay [4] concerns the target T2, NPFF2-R (Homo sapiens, UniProt Q9Y5X5). Kind of assay: [35S]GTPγS binding assay, membranes of NPFF2-R expressing CHO cells. It counts as biochemical. The note with it: tested at 10 μM; % maximal activation.
Assay [5] deals with T2, NPFF2-R. The note with it: cited from earlier work; for selectivity for the hNPFF2 subtype: radioligand competition binding assays. (In general: Displacement assays read how much labelled ligand stays bound in the presence of the test substance.)
Assay [6] deals with T2, NPFF2-R. It counts as binding.
The target in assay [7] is T2, NPFF2-R. It counts as cell-based.
In assay [8] the target is T2, NPFF2-R. It counts as binding. This is another data set of the same source.
The target of assay [9] is membrane of rat spinal cord. The note with it: read-out: Ki in the membrane of rat spinal cord; cited from earlier work.
Assay [10] has as its target T1, NPFF1-R. The note with it: read-out: hNPFF1-R Ki; radioligand displacement assays; cited from earlier work.
The target in assay [11] is T1, NPFF1-R. The note with it: read-out: cAMP hNPFF1-R antagonist activity EC50; data taken from ref 15; cited from earlier work.

T1 sequence (Q9GZQ6 whole entry): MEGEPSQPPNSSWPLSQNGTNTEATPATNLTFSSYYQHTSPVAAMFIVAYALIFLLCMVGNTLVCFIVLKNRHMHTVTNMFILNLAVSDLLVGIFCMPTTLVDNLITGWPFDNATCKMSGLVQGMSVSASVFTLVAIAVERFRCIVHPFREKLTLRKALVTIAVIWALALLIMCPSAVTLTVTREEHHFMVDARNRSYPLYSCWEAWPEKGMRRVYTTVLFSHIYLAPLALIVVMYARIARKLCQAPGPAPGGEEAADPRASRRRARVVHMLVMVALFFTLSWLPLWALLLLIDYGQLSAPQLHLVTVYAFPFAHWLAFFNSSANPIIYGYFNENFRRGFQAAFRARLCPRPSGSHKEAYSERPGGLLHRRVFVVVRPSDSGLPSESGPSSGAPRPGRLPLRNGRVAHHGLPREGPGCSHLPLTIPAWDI
T2 sequence (Q9Y5X5 whole entry): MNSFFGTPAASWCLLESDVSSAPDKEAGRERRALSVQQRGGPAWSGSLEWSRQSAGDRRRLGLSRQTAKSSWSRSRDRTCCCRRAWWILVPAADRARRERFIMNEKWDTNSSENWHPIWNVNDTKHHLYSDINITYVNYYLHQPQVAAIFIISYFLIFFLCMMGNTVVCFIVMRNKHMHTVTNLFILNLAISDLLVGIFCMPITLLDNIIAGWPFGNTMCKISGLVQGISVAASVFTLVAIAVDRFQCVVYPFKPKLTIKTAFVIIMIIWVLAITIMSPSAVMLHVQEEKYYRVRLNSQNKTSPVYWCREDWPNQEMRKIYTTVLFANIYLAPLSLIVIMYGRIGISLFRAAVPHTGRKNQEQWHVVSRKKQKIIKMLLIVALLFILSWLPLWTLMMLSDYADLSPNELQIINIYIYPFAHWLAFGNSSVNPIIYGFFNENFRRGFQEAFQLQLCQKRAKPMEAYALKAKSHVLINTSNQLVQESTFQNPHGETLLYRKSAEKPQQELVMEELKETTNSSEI

Consider `N=C(N)NCC(=O)NCC1(Nc2cccc3ccccc23)CCN(Cc2ccccc2)CC1` [30a, N-((1-Benzyl-4-(naphthalen-1-ylamino)piperidin-4-yl)methyl)-2-guanidinoacetamide Tritriflate], for which the “ratio, preference for NPFF1” value in [1] is given as 3.3-fold (NPFF1). The “Highest concentration showing no agonist activity when tested alone, hNPFF1-R” value in [2] is recorded as over 10K ^f. Regarding `N=C(N)NCCC[C@H](N)C(=O)NCC1(Nc2ccccc2)CCN(Cc2ccccc2)CC1` [7b, 2-Amino-N-((1-benzyl-4-(phenylamino)piperidin-4-yl)methyl)-5-guanidinopentanamide Hydrochloride], the “% stimulation (increase) of [35S]GTPγS binding at NPFF1-R” value in assay [3] is listed as 36 ^d %. The “% stimulation (increase) of [35S]GTPγS binding at NPFF2-R” value in [4] is on record as 184 ^d %.

Take “SQAFLFQPQRFa (SQAFLFQPQRF-NH2; UniProt O15130 66-76, looked up) [hNPFF]”: the “selectivity for the hNPFF2 subtype” value in assay [5] is 10.7 fold. Consider `N=C(N)NCCC[C@H](N)C(=O)NCC1CCN(Cc2ccccc2)CC1` [compound 15, 2-Amino-N-((1-benzylpiperidin-4-yl)methyl)-5-guanidinopentanamide Hydrochloride], for which the “fold loss of affinity at NPFF2-R relative to 7b” value in [6] was found to be 7 fold. As to `N=C(N)NCC(=O)NCC1(Nc2ccccc2)CCN(Cc2ccc(Br)cc2)CC1` [49f, N-((1-(4-Bromobenzyl)-4-(phenylamino)piperidin-4-yl)methyl)-2-guanidinoacetamide Tritriflate], in assay [1], the “fold gain of affinity at NPFF1-R compared with lead 21” value (“fold gain of affinity at NPFF1-R” below) is listed as 2.3–2.8 fold.

`N=C(N)NCC(=O)NCC1(Cc2cccc3ccccc23)CCN(Cc2ccccc2)CC1` [53a, N-((1-Benzyl-4-(naphthalen-1-ylmethyl)piperidin-4-yl)methyl)-2-guanidinoacetamide Tritriflate]: in assay [7], the “Activity alone at NPFF2-R” value is on record as “low activity”. In addition, in assay [8], the “fold gain of affinity at NPFF2-R compared with lead 21” value (“fold gain of affinity at NPFF2-R” below) is listed as 14 fold and the “fold increase in affinity at NPFF2-R relative to lead 42” value is 2.8 fold. Moreover, the “Activity alone at NPFF1-R” value in assay [2] is listed as “low activity”. In the case of `N=C(N)NCC(=O)NCC1(Nc2ccc(Cl)c(Cl)c2)CCN(Cc2ccccc2)CC1` [30d, N-((1-Benzyl-4-(3,4-dichlorophenylamino)piperidin-4-yl)methyl)-2-guanidinoacetamide Tritriflate], the “ratio, preference for NPFF1” value in assay [1] is recorded as 2.1-fold (NPFF1). In the case of `N=C(N)NCC(=O)NCC1(Cc2ccc(-c3ccccc3)cc2)CCN(Cc2ccccc2)CC1` [53d, N-((1-Benzyl-4-(biphenyl-4-ylmethyl)piperidin-4-yl)methyl)-2-guanidinoacetamide Ditriflate], the “ratio, preference for NPFF1” value in assay [1] was 3-fold (NPFF1). In addition, the “fold loss of affinity at NPFF2-R relative to 53a” value in assay [8] is reported as 30 fold. `COc1cccc(NC2(CNC(=O)CNC(=N)N)CCN(Cc3ccccc3)CC2)c1` [30c, N-((1-Benzyl-4-(3-methoxyphenylamino)piperidin-4-yl)methyl)-2-guanidinoacetamide Tritriflate]: in assay [1], the “ratio, preference for NPFF1” value is on record as 4.4-fold (NPFF1). Take `N=C(N)NCC(=O)NCC1(Nc2ccccc2)CCN(Cc2cccc3ccccc23)CC1` [49d, 2-Guanidino-N-((1-(naphthalen-1-ylmethyl)-4-(phenylamino)piperidin-4-yl)methyl)acetamide Tritriflate]: the “fold gain of affinity at NPFF2-R” value in assay [8] is recorded as 1.2–3.1 fold. Turning to `N=C(N)NCC(=O)NCC1(Nc2ccccc2)CCN(CC2CCCCC2)CC1` [49b, N-((1-(Cyclohexylmethyl)-4-(phenylamino)piperidin-4-yl)methyl)-2-guanidinoacetamide Tritriflate], the “fold loss of affinity at NPFF1-R relative to lead 21” value in [1] is 5 fold. For the same molecule, the “fold gain of affinity at NPFF2-R” value in assay [8] is on record as 1.2–3.1 fold.

On to “SLNFEELKDWGPKNVIKMSTPAVNKMPHSFANLPLRFa [hNPSF]”, for which, in [5], the “selectivity for the hNPFF2 subtype” value is on record as 1.2 fold. `N=C(N)NCCNC(=O)C1(Nc2ccccc2)CCN(Cc2ccccc2)CC1` [compound 46, 1-Benzyl-N-(2-guanidinoethyl)-4-(phenylamino)piperidine-4-carboxamide Tritriflate]: the “fold gain of affinity at NPFF1-R” value in [1] is given as 4 fold.

For the molecule `N=C(N)NCC(=O)NCC1(Cc2ccc3ccccc3c2)CCN(Cc2ccccc2)CC1` [53c, N-((1-Benzyl-4-(naphthalen-2-ylmethyl)piperidin-4-yl)methyl)-2-guanidinoacetamide Ditriflate], in assay [8], the “fold loss of affinity at NPFF2-R relative to 53a” value is 6.8 fold and the “ratio, preference for NPFF2” value was 1.5-fold (NPFF2). As for `N=C(N)NCC(=O)NCC1(CCc2ccccc2)CCN(Cc2ccccc2)CC1` [compound 43, N-((1-Benzyl-4-phenethylpiperidin-4-yl)methyl)-2-guanidinoacetamide Ditriflate], the “ratio, preference for NPFF1” value in assay [1] is recorded as 3-fold (NPFF1). In addition, the “fold loss of affinity at NPFF2-R relative to 42” value in assay [8] worked out at 5.5 fold.

As to `COc1cc(NC2(CNC(=O)CNC(=N)N)CCN(Cc3ccccc3)CC2)cc(OC)c1` [30b, N-((1-Benzyl-4-(3,5-dimethoxyphenylamino)piperidin-4-yl)methyl)-2-guanidinoacetamide Tritriflate], the “ratio, preference for NPFF1” value in assay [1] is given as 8.7-fold (NPFF1). The “Highest concentration showing no agonist activity when tested alone, hNPFF1-R” value in assay [2] was over 10K ^f.

With AGEGLSSPFWSLAAPQRFa [hNPAF], the “selectivity for the hNPFF2 subtype” value in assay [5] was 10.1 fold. The term Ki denotes a measure of affinity in units of concentration, obtained from inhibition or displacement. For the molecule FLFQPQRFa [NPFF], the Ki in [9] was 0.21 nM. As to `N=C(N)NCC(=O)NCC1(Nc2ccccc2)CCN(Cc2ccc3ccccc3c2)CC1` [49e, 2-Guanidino-N-((1-(naphthalen-2-ylmethyl)-4-(phenylamino)piperidin-4-yl)methyl)acetamide Tritriflate], the “fold gain of affinity at NPFF1-R” value in assay [1] is 2.3–2.8 fold. Broadly, the EC50 is the concentration that produces a half-maximal response. Turning to n-adamantanecarbonyl-Arg-Phe-NH2 [RF9], the Ki in assay [5] (read-out: hNPFF2-R Ki, radioligand displacement assays) is 75 ± 9 nM; in assay [10], 58 ± 5 nM. The “cAMP hNPFF1-R Emax, %” value in [2] is recorded as 79 ± 5 ^c %. Besides, the 50% effective concentration (EC50) in assay [11] is 4700 ± 1200 nM. Consider `N=C(N)NCC(=O)NCC1(Nc2ccccc2)CCN(Cc2ccccc2)CC1` [compound 21, N-((1-Benzyl-4-(phenylamino)piperidin-4-yl)methyl)-2-guanidinoacetamide tritriflate], for which, in assay [1], the “fold increase in affinity at NPFF1-R compared with lead 7b” value turned out to be 1.5 fold. Moreover, in assay [7], the “% inhibition of forskolin-stimulated cAMP accumulation (cyclase) at NPFF2-R” value was 20–25 ^e % and the “Agonist activity alone at NPFF2-R” value was “weak partial agonist activity”. In addition, the “fold increase in affinity at NPFF2-R compared with lead 7b” value in assay [8] is 2.6 fold. For the same molecule, the “Agonist activity alone at NPFF1-R” value in [2] is recorded as “weak partial agonist activity”.

In the case of `N=C(N)NCC(=O)NCC1(c2ccccc2)CCN(Cc2ccccc2)CC1` [compound 34, N-((1-Benzyl-4-phenylpiperidin-4-yl)methyl)-2-guanidinoacetamide Ditriflate], in assay [1], the “fold loss of affinity at NPFF1-R relative to lead 21” value is listed as 1.6 fold and the “ratio, preference for NPFF1” value was 6.9-fold (NPFF1). Also, the “fold loss of affinity at NPFF2-R relative to lead 21” value in assay [8] is on record as 8.7 fold.

In the case of `N=C(N)NCC(=O)NCC1(Cc2ccccc2)CCN(Cc2ccccc2)CC1` [compound 42, N-((1,4-Dibenzylpiperidin-4-yl)methyl)-2-guanidinoacetamide Ditriflate], in [7], the “Highest concentration showing no agonist activity when tested alone, hNPFF2-R” value stood at 1K ^f. The “fold gain of affinity at NPFF2-R” value in assay [8] stood at 5 fold. With `N=C(N)NCC(=O)NCC1(Nc2ccccc2)CCN(CCc2ccccc2)CC1` [49c, 2-Guanidino-N-((1-phenethyl-4-(phenylamino)piperidin-4-yl)methyl)acetamide Tritriflate], the “fold gain of affinity at NPFF2-R” value in assay [8] was 1.2–3.1 fold. `N=C(N)NCC(=O)NCC1(Cc2ccc(Cl)c(Cl)c2)CCN(Cc2ccccc2)CC1` [53b, N-((1-Benzyl-4-(3,4-dichlorobenzyl)piperidin-4-yl)methyl)-2-guanidinoacetamide Ditriflate]: the “fold loss of affinity at NPFF2-R relative to 53a” value in assay [8] is 2.7 fold.
